Data on 6 compounds can be found in ChEMBL document CHEMBL4354827, “Discovery of Novel, Potent, Brain-Permeable, and Orally Efficacious Positive Allosteric Modulator of α7 Nicotinic Acetylcholine Receptor [4-(5-(4-Chlorophenyl)-4-methyl-2-propionylthiophen-3-yl)benzenesulfonamide]: Structure-Activity Relationship and Preclinical Characterization” (J Med Chem, 2020).

Series [1] can be described thus: Drug level in DBA/2 mouse brain at 0.3 mg/kg, iv after 90 mins. The note with it: read-out: Drug uptake. The format is ADME, organism-based.
The nature of series [2]: Drug level in NSA mouse brain at 0.3 mg/kg, po after 120 to 150 mins. The note with it: in vivo, read-out: Drug uptake. The format is ADME, organism-based.
Series [3] is described as follows: Drug level in DBA/2 mouse brain at 0.3 mg/kg, iv after 10 mins. Format: ADME, organism-based. The note with it: read-out: Drug uptake.
Series [4] is described as follows: Drug concentration in Sprague-Dawley rat plasma at 3 mg/kg, po after 1 hr. Format: ADME, organism-based.
Series [5] can be described thus: Drug concentration in Sprague-Dawley rat brain at 3 mg/kg, po after 1 hr. The format is ADME, organism-based. The note with it: read-out: Drug uptake.
Series [6] in a line: Ratio of drug level in Sprague-Dawley rat brain to plasma at 3 mg/kg, po after 1 hr. Format: ADME, organism-based. The note with it: brain and plasma, read-out: BPR.
Series [7] has as its system Rattus norvegicus. As to the kind of experiment: Improvement in social recognition time delay-induced Sprague-Dawley rat model of amnesia assessed as increase in reduction in social investigation time at 0.15 mg/kg, po for 7 days and measured on day 9 (reference value: -0.5%). Format: functional. The arrangement: scale not given: the % may be the effect or the level left.

Series [8] deals with Rattus norvegicus. Put plainly: Memory enhancement effect in scopolamine-induced Wistar rat model of amnesia assessed as exploration time for novel object in retention trial at 0.05 mg/kg, po for 7 days and measured on day 8 by novel object recognition test (reference value: 12.09 sec). The format is functional.
Series [9] concerns Rattus norvegicus. As to the kind of experiment: Memory enhancement effect in scopolamine-induced Wistar rat model of amnesia assessed as exploration time for familiar object in retention trial at 0.15 mg/kg, po administered as single dose and measured on day 9 by novel object recognition test (reference value: 8.59 sec). The format is functional.
The test system of series [10] is Rattus norvegicus. Put plainly: Memory enhancement effect in time-delay induced Wistar rat model of amnesia assessed as exploration time for object1 at 3 mg/kg, po administered as single dose after acquisition trial by novel object recognition test (reference value: 19.09 sec). The format is functional.
Series [11] relates to Rattus norvegicus. Put plainly: Memory enhancement effect in time-delay induced Wistar rat model of amnesia assessed as exploration time for object2 in acquisition trial at 0.05 mg/kg, po for 7 days and measured on day 8 by novel object recognition test (reference value: 11.76 sec). The format is functional.
The subject of series [12] is Rattus norvegicus. As to the kind of experiment: Memory enhancement effect in time-delay induced Wistar rat model of amnesia assessed as exploration time for familiar object in retention trial at 0.05 mg/kg, po for 7 days and measured on day 8 by novel object recognition test (reference value: 10.20 sec). The format is functional.
In series [13] the test system is Rattus norvegicus. As to the kind of experiment: Memory enhancement effect in time-delay induced Wistar rat model of amnesia assessed as exploration time for novel object at 3 mg/kg, po administered as single dose after acquisition trial by novel object recognition test (reference value: 12.81 sec). Format: functional.
The subject of series [14] is Rattus norvegicus. Put plainly: Memory enhancement effect in time-delay induced Wistar rat model of amnesia assessed as increase in exploration time for novel object in retention trial at 3 mg/kg, po administered as single dose and measured on day 9 by novel object recognition test (reference value: 12.06 sec). The format is functional.
Series [15] has as its system Rattus norvegicus. Put plainly: Memory enhancement effect in time-delay induced Wistar rat model of amnesia assessed as exploration time for object1 in acquisition trial at 3 mg/kg, po administered as single dose and measured on day 8 by novel object recognition test (reference value: 13.95 sec). The format is functional.
For series [16], the system named is Rattus norvegicus. As to the kind of experiment: Memory enhancement effect in time-delay induced Wistar rat model of amnesia assessed as exploration time for familiar object at 3 mg/kg, po administered as single dose after acquisition trial by novel object recognition test (reference value: 10.6 sec). Format: functional.
The subject of series [17] is Rattus norvegicus. Put plainly: Memory enhancement effect in scopolamine-induced Wistar rat model of amnesia assessed as increase in exploration time for novel object in retention trial at 0.15 mg/kg, po administered as single dose and measured on day 9 by novel object recognition test (reference value: 12.09 sec). The format is functional.
For series [18], the system named is Rattus norvegicus. As to the kind of experiment: Improvement in social recognition scopolamine-induced Sprague-Dawley rat model of amnesia assessed as increase in reduction in social investigation time at 0.15 mg/kg, po for 7 days measured after 24 hrs (Rvb =6.59%). Format: functional. Details: scale not given: the % may be the effect or the level left.
Series [19] has as its system Rattus norvegicus. Put plainly: Memory enhancement effect in time-delay induced Wistar rat model of amnesia assessed as exploration time for object2 in acquisition trial at 3 mg/kg, po administered as single dose and measured on day 8 by novel object recognition test (reference value: 16.33 sec). The format is functional.
In series [20] the test system is Rattus norvegicus. As to the kind of experiment: Memory enhancement effect in time-delay induced Wistar rat model of amnesia assessed as exploration time for familiar object in retention trial at 3 mg/kg, po administered as single dose and measured on day 9 by novel object recognition test (reference value: 13.05 sec). The format is functional.
Series [21] in a line: Drug level in Wistar rat brain at 3 mg/kg, po after 2 hrs by LC-MS/MS analysis. The format is ADME, organism-based. The note with it: read-out: Drug uptake.
For series [22], the system named is Rattus norvegicus. Put plainly: Memory enhancement effect in time-delay induced Wistar rat model of amnesia assessed as exploration time for object1 in acquisition trial at 0.05 mg/kg, po for 7 days and measured on day 8 by novel object recognition test (reference value: 13.73 sec). The format is functional.
For series [23], the system named is Rattus norvegicus. As to the kind of experiment: Memory enhancement effect in scopolamine-induced Wistar rat model of amnesia assessed as exploration time for familiar object in retention trial at 0.05 mg/kg, po for 7 days and measured on day 8 by novel object recognition test (reference value: 8.59 sec). The format is functional.
The test system of series [24] is Rattus norvegicus. As to the kind of experiment: Improvement in social recognition time delay-induced Sprague-Dawley rat model of amnesia assessed as increase in reduction in social investigation time at 3 mg/kg, po administered as single dose prior to 1 hr training and measured after 30 mins (reference value: 0.39%). Format: functional. The arrangement: scale not given: the % may be the effect or the level left.

The subject of series [25] is Rattus norvegicus. Put plainly: Improvement in social recognition scopolamine-induced Sprague-Dawley rat model of amnesia assessed as increase in reduction in social investigation time at 3 mg/kg, po administered as single dose prior to 1 hr training and measured after 30 mins (reference value: 9.81%). Format: functional. The arrangement: scale not given: the % may be the effect or the level left.

Series [26] deals with Rattus norvegicus. Put plainly: Memory enhancement effect in time-delay induced Wistar rat model of amnesia assessed as exploration time for novel object in retention trial at 0.05 mg/kg, po for 7 days and measured on day 8 by novel object recognition test (reference value: 15.37 sec). Format: functional.
Series [27] can be described thus: Drug concentration in Wistar rat plasma at 3 mg/kg, po after 2 hrs by LC-MS/MS analysis. Format: ADME, organism-based.
Series [28] relates to Rattus norvegicus. Put plainly: Memory enhancement effect in scopolamine-induced Wistar rat model of amnesia assessed as exploration time for object1 in acquisition trial at 0.15 mg/kg, po administered as single dose and measured on day 8 by novel object recognition test (reference value: 16.11 sec). Format: functional.
Series [29] can be described thus: Ratio of drug level in brain to plasma in Wistar rat at 3 mg/kg, po after 2 hrs by LC-MS/MS analysis. The note with it: brain and plasma, read-out: BPR. The format is ADME, organism-based.
For series [30], the system named is Rattus norvegicus. Put plainly: Memory enhancement effect in scopolamine-induced Wistar rat model of amnesia assessed as exploration time for object2 in acquisition trial at 0.15 mg/kg, po administered as single dose and measured on day 8 by novel object recognition test (reference value: 15.63 sec). The format is functional.
Series [31] has as its system Rattus norvegicus. Put plainly: Memory enhancement effect in time-delay induced Wistar rat model of amnesia assessed as exploration time for object2 at 3 mg/kg, po administered as single dose after acquisition trial by novel object recognition test (reference value: 21.07 sec). Format: functional.
Series [32] deals with Rattus norvegicus. Put plainly: Memory enhancement effect in scopolamine-induced Wistar rat model of amnesia assessed as exploration time for object2 in acquisition trial at 0.05 mg/kg, po for 7 days and measured on day 8 by novel object recognition test (reference value: 15.63 sec). Format: functional.
For series [33], the system named is Rattus norvegicus. Put plainly: Memory enhancement effect in scopolamine-induced Wistar rat model of amnesia assessed as exploration time for object1 in acquisition trial at 0.05 mg/kg, po for 7 days and measured on day 8 by novel object recognition test (reference value: 16.11 sec). The format is functional.
A short description of series [34]: Ratio of drug level in rat brain to plasma at 10 mg/kg, ip by HPLC-LC/MS analysis. The format is ADME, organism-based. The note with it: brain and plasma, read-out: BPR.
Series [35] is described as follows: Drug level in rat plasma at 10 mg/kg, ip after 120 mins by HPLC-LC/MS analysis. The format is ADME, organism-based.
The nature of series [36]: Drug concentration in Swiss mouse plasma at 40 mg/kg, sc after 30 mins by LC-MS analysis. Format: ADME, organism-based.
Series [37] is described as follows: Ratio of drug level in Swiss mouse brain to plasma at 40 mg/kg, sc after 30 mins by LC-MS analysis. Format: ADME, organism-based. The note with it: brain and plasma, read-out: BPR.
Series [38] can be described thus: Drug concentration in Swiss mouse brain at 40 mg/kg, sc after 30 mins by LC-MS analysis. Format: ADME, organism-based. The note with it: read-out: Drug uptake.
Series [39] can be described thus: Drug level in Sprague-Dawley rat cerebrospinal fluid at 3 mg/kg, po. Format: ADME, organism-based. The note with it: in vivo.

Regarding `Cc1cc(/C(=C/Nc2ccc(Cl)cc2)C(=O)Nc2ccc(Cl)cc2)on1` [AVL-3288], in series [1], the concentration at 1.5 h turned out to be 300 nM. In addition, in series [2], the concentration was in the range of 150 to 300 nM. Also, the concentration at 10 min in series [3] is 1000 nM.

Regarding `COc1cc(OC)c(NC(=O)Nc2cc(C)on2)cc1Cl`, the concentration at 1 h turned out to be 43.1 ng/mL in series [4] and 50.8 ng/g in series [5]. Further, the Kp at 1 h in series [6] was 1.18.

In the case of `CCC(=O)c1cc(-c2ccc(Cl)cc2)n(-c2ccc(S(N)(=O)=O)cc2)c1C`, the Activity was 65.75% with Rattus norvegicus [7], 31.8% with Rattus norvegicus [18], 35.28% in the series with Rattus norvegicus [24] and 50.67% with Rattus norvegicus [25]. The Time in the series on Rattus norvegicus [8] is reported as 16.33 s; in the series on Rattus norvegicus [9], 5.7 s; in the series with Rattus norvegicus [10] it was 12.7 s; in the series on Rattus norvegicus [11] it was 12.59 s; in the series with Rattus norvegicus [12], 10.19 s; in the series on Rattus norvegicus [13], 14.61 s. The Time worked out at 28.31 s with Rattus norvegicus [14]; 25.62 s in the series with Rattus norvegicus [15]; 8.05 s in the series on Rattus norvegicus [16]; 16.33 s with Rattus norvegicus [17]; 20.37 s in the series on Rattus norvegicus [19]; 11.47 s in the series on Rattus norvegicus [20]. The Time is 11.58 s in the series on Rattus norvegicus [22]; 5.7 s in the series on Rattus norvegicus [23]; 14.16 s in the series on Rattus norvegicus [26]; 14.7 s in the series on Rattus norvegicus [28]; 14.75 s in the series on Rattus norvegicus [30]; 17.17 s in the series with Rattus norvegicus [31]. Moreover, the Time in the series on Rattus norvegicus [32] was 14.75 s; in the series on Rattus norvegicus [33] it was 14.7 s. In addition, the concentration at 2 h fell in the range of 110 to 140 nM in [21] and 700 to 1050 nM in [27]. Moreover, the Kp at 2 h in [29] is 0.1 to 0.2.

Take `O=C(Nc1cc(Cl)ccc1O)Nc1cc(C(F)(F)F)ccc1Cl`: the Kp in [34] was found to be 0.5. Further, the concentration at 2 h in [35] was 172 ng/mL.

On to `OCc1sc(Nc2ccc(F)c(C(F)(F)F)c2)nc1-c1ccncc1`, for which the concentration at 0.5 h came to 5920 ng/mL in [36] and 1910 ng/g in [38]. In series [37], the Kp at 0.5 h was 0.3.

For `COc1ccc(Cl)cc1C(=O)N[C@@H]1[C@@H](c2ccc(S(N)(=O)=O)cc2)C1(C)C`, in series [39], the Drug uptake was determined as 12.1 ng/mL.
